From article PMC7277748 (Biomedicines, 2020)
Read-outs that look alike come from different tables or passages of the source.

Columns and labels:
Aβ1–42 = Aβ1–42 (Homo sapiens, UniProt P05067); test: Inhibition of self-induced Aβ1–42 aggregation (thioflavin T assay); format: biochemical; settings: ThT fluorescence, Aβ1–42, 48 h at 37 °C, mean ± SD; read-out: Self-Induced Aβ IC50
Experimental: Inhibition of self-induced Aβ1–42 aggregation was assayed, as described elsewhere. […] After incubation, the samples were mixed with […] glycine/NaOH buffer (pH 8.5) containing 5 μM ThT. […] The fluorescence intensities were recorded, and the percentage of inhibition on aggregation was calculated by using the following equation: (1 − IFi/IFc) * 100% in which IFi and IFc were the fluorescence intensities obtained for Aβ1-42 aggregation group in the presence and absence of the test compounds, respectively, after subtracting the background fluorescence of 5 μM ThT in the blank buffers. […] The experiment was done in independent triplicates. […]

[1] = molecular target: T1, AChE from Electrophorus electricus (type VI-S) (Electrophorus electricus, UniProt O42275); test: biochemical
T1 construct: purchased
T1 sequence (O42275 24-633): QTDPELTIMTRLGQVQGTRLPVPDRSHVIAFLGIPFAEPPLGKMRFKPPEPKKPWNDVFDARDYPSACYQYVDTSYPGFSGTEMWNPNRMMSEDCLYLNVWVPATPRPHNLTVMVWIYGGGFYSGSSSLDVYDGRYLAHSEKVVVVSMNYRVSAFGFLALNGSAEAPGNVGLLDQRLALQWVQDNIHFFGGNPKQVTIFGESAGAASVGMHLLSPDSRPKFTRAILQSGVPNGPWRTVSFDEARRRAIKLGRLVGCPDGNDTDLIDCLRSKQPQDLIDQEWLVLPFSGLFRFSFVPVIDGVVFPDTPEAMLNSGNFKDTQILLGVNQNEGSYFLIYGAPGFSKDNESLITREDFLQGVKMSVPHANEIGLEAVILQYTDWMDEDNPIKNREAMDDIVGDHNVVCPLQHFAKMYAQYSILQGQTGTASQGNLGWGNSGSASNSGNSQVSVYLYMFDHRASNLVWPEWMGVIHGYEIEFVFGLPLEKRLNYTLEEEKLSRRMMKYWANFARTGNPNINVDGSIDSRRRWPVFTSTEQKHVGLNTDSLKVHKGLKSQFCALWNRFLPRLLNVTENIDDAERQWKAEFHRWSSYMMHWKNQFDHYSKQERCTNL
Experimental: Acetylcholinesterase inhibitory activity was determined and modified from Ellman, as described elsewhere. […] The enzyme activity and the percentage inhibition were determined. […] All determinations were carried out at least three times and in triplicate wells.

[2] = molecular target: T2, AChE-induced Aβ1–42 aggregation (Electrophorus electricus, UniProt O42275); test: Inhibition of AChE-induced Aβ1–42 aggregation (thioflavin T assay); format: biochemical; settings: for inhibitory effect on AChE-induced Aβ1–42 aggregation (in words): ThT-based fluorescence assay
T2 construct: purchased
T2 sequence (O42275 24-633): as above
Experimental: Inhibition of AChE-induced Aβ1–42 aggregation was modified and measured using a thioflavin T (ThT) binding assay, as described elsewhere. Briefly, Aβ1–42 was dissolved in 50 mM phosphate buffer (pH 8.0). […] The fluorescence intensities were recorded, and the percentage of inhibition on aggregation was calculated by using the following equation: (1 – IFi/IFc) * 100%, in which IFi and IFc were the fluorescence of the AChE-induced Aβ1–42 aggregation group in the presence and absence of the test compounds, respectively, after subtracting the fluorescence of self Aβ1–42 aggregation and the background fluorescence of 5 μM ThT in the blank buffers. […] All determinations were carried out at least three times and in triplicate wells. […]

SH-SY5Y cells [3] = test: Cytotoxicity in SH-SY5Y cells (MTT); format: cell-based; settings: 0.1 to 10 µM for 24 h
Experimental: (§1) Human neuroblastoma cells (SH-SY5Y) were cultured in Dulbecco’s Modified Eagle Medium (DMEM/Ha’s F12) containing 50 IU/mL penicillin, […] streptomycin, 2 mM L-glutamine, and 10% fetal bovine serum. Cells were maintained at 37 °C in a humidified incubator in an atmosphere of 5% CO2 For the assay, the SH-SY5Y cells, at a density of 5 × 10^5 cell/mL, were seeded in a 96-well plate and incubated for 48 h.
For cytotoxicity evaluation, the cells were treated with potential coumarin derivatives in various concentrations for 24 h. After that, cell viability was determined by staining the cells with 3-(4, 5-dimethyl-2-thiazolyl)-2, 5-diphenyl-2H-tetrazolium bromide, and MTT (5 mg/mL in PBS) for 2 h. The optical density of each well was measured at 550 nm in a […] Accureader M965 microplate reader.

SH-SY5Y cells [4] = test: Neuroprotection against H2O2-induced cell damage (MTT); format: cell-based, Human; settings: pre-incubation with 10 µM for 24 h, then 100 µM H2O2 for 2 h, compared to H2O2 treated group
Experimental: as §1
For neuroprotection against H2O2 investigation, the cells were pretreated with coumarin in various concentrations for 24 h. After removing unabsorbed test compounds by washing with phosphate buffer saline, the cells were treated with 100 µM H2O2 for 2 h to induce oxidative stress. Cell viability was determined by the MTT colorimetric method. The optical density of each well was measured at 550 nm. […] All data were expressed as a percentage of non-H2O2-treated groups (control group). The cell viability of the control group was expressed as 100%. The experiment was done in independent triplicates (4 wells/group).
The neuroprotective effect of phellopterin against oxidative stress was determined by colorimetric MTT assay in SH-SY5Y cells. Hydrogen peroxide at concentration 100 µM was used to induce oxidative damage. SH-SY5Y cells were pretreated with phellopterin at a concentration of 0.1 to 10 µM for 24 h prior to exposure to H2O2 for 2 h.

SH-SY5Y cells [5] = test: Neuroprotection against Aβ1–42 toxicity (MTT); format: cell-based, Human; settings: 0.1 to 10 µM with 25 µM Aβ1–42 for 24 h, compared to Aβ1–42-induced group
Experimental: as §1
For neuroprotection against Aβ1–42 toxicity, the Aβ1–42 preparation was modified from. Briefly, lyophilized Aβ1–42 was reconstituted in sterile water and keep at −80 °C until further use. […] Cell viability was determined by the MTT colorimetric method. The optical density of each well was measured at 550 nm in a […] Accureader M965 microplate reader. […] All data were expressed as a percentage of non-Aβ1–42-treated groups (control group). Cell viability of the control group was expressed as 100%. […]
Aβ has been implicated in the pathogenesis of AD. […] Therefore, the neuroprotective effect against Aβ1–42 toxicity of phellopterin was also determined in SH-SY5Y cells. Aβ1–42 at concentration 25 µM was treated with cells in the presence or absence of phellopterin at a concentration 0.1 to 10 µM for 24 h, and then the cell viability was determined by MTT assay. […]

[6] = Ellman method, 0.2 Units/mL AChE, pH 7.4, mean ± SD, read-out: AChE assay IC50

Aβ1–42, sequence (P05067 672-713 limits assumed): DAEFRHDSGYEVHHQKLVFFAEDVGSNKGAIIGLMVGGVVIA

SMILES | IC50 (Aβ1–42) | IC50 [1, 6] | IC50 [2] | inhibitory effect on AChE-induced Aβ1–42 aggregation (in words) [2] | IC50 [1] | viability of SH-SY5Y cells (cytotoxicity) (SH-SY5Y cells [3]) | effect on H2O2-induced cell damage (cell viability) (SH-SY5Y cells [4]) | effect on Aβ1–42-induced cell damage (cell viability) (SH-SY5Y cells [5])
COc1cc(OC)c2ccc(=O)oc2c1OCC=C(C)C [Artanin, artanin] | 124 ± 10 µM | 51 ± 2 µM | 98 ± 19 µM | – | – | – | – | –
COc1cc2oc(=O)ccc2c(OC)c1O [Fraxinol, fraxinol] | 209 ± 21 µM | 18 ± 7 µM | > 500 µM | did not have inhibitory effects | – | – | – | –
COc1c2ccoc2c(OC)c2oc(=O)ccc12 [Isopimpinellin, isopimpinellin] | 125 ± 13 µM | – | > 500 µM | did not have inhibitory effects | 41 ± 1 µM | – | – | –
COc1c2ccoc2c(OCC=C(C)C)c2oc(=O)ccc12 [Phellopterin, phellopterin] | 95 ± 3 µM | 38 ± 3 µM | 97 ± 7 µM | – | – | no significant change | significantly attenuated the H2O2-induced cell damage | significantly increase cell viability
COC1=CC(=O)c2cc(C)cc(-c3c(OC)cc(OC)c4ccc(=O)oc34)c2C1=O [Toddacoumaquinone, toddacoumaquinone] | 145 ± 2 µM | 46 ± 12 µM | 72 ± 5 µM | – | – | – | – | –
COc1cc2oc(=O)ccc2c(OC)c1CC=C(C)C [Toddaculin, toddaculin] | 143 ± 4 µM | 53 ± 9 µM | 232 ± 10 µM | – | – | – | – | –
COc1cc(OC)c2ccc(=O)oc2c1/C=C/C(C)=O [Toddalenone, toddalenone] | 99 ± 1 µM | 40 ± 4 µM | 211 ± 29 µM | – | – | – | – | –
COc1cc2oc(=O)ccc2c(OC)c1C[C@@H](O)C(C)(C)O [Toddalolactone, toddalolactone] | 220 ± 1 µM | 49 ± 5 µM | 105 ± 9 µM | – | – | – | – | –
COc1cc2oc(=O)ccc2c(OC)c1CC(=O)C(C)C [Toddanone, toddanone] | 76 ± 1 µM | 46 ± 3 µM | 110 ± 2 µM | – | – | – | – | –
